Assay results reported in EP4741395A1, “NOVEL COMPOUND SENSITIVE TO NITROGEN MONOXIDE AND PHARMACEUTICAL COMPOSITION COMPRISING SAME” (Omniamed Co. Ltd, priority 2023, dated 2025).
Entries after “also recorded” stand apart in the source; their conditions may differ.

Legend:
Raw 264.7 cell line = experiment: NO scavenging activity in LPS-treated immune cells (Griess reagent); assay type: cell-based; conditions: Mus musculus, RAW264.7, Raw 264.7, LPS 500 ng/mL, 24 hours, read-out: NO Scavenging Activity (%) (Mean±SD)
IL-6 (Interleukin-6) = experiment: Inhibition of inflammatory cytokine secretion in LPS-treated immune cells (IL-6 sandwich ELISA); assay type: cell-based; conditions: Mus musculus, RAW264.7, Raw 264.7, LPS 500 ng/mL, 24 hours, read-out: IL-6 Reduction Activity (%) (Mean±SD)
Protocol: Raw 264.7 cell line was seeded in a 48-well plate at a density of 8×10^4 cells/well, and cultured at 37°C in a DMEM medium including 10% FBS, 100 U/mL of penicillin and 100 µg/mL of streptomycin.
The medium was cultured overnight, and then replaced with a fresh medium including 10 µM of the pharmaceutical composition sensitive to nitrogen monoxide including the compound of each of Examples 1 and 11 to 13 and 500 ng/mL of LPS, and the fresh medium was cultured again for another 24 hours.
Lastly, the supernatant was collected, and then the level of IL-6 (Interleukin-6) expression was analyzed using a Sandwich enzyme-linked immunosorbent assay (ELISA). Specifically, a standard solution and 50 µL of the diluted supernatant were introduced to each well of a well plate coated with an antibody specific to IL-6, and after binding IL-6 to the immobilized antibody, the well was washed with a washing buffer, followed by a reaction with HRP as a secondary antibody for 30 minutes at room temperature. The well was washed three times with a washing buffer, then color was developed using TMB (3,3', 5,5'-tetramethyl benzidine) as a substrate, and the reaction was stopped using 1 M sulfuric acid to measure the degree of color development at an absorbance of 450 nm.

IFN-γ = IFN-γ reduction activity in Concanavalin A-treated splenocytes (quantitative ELISA); assay type: cell-based, C57BL/6 mouse; conditions: Mus musculus, Splenocyte, Concanavalin A 5 µg/mL, 72 hours, read-out: IFN-γ Reduction Activity (%) (Mean±SD)
How it was run: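 Splenocytes from 8-week-old C57BL/6 mice at 5×10^6 cells/mL in RPMI 1640 with 10% FBS, stimulated with Concanavalin A (5 µg/mL) plus compound added concentration-dependently. Supernatant IFN-γ measured by quantitative ELISA after 72 h.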

splenocytes = experiment: Inhibitory activity on cell proliferation in splenocytes (CCK-8 analysis); assay type: cell-based, C57BL/6 mouse; conditions: Mus musculus, Splenocyte, Concanavalin A 5 µg/mL, 72 hours, read-out: Inhibitory Activity on Cell Proliferation (%) (Mean±SD)
JAK 2 = target: T1, JAK 2 (Homo sapiens, UniProt O60674); experiment: JAK Human TK kinase enzymatic radiometric assay (Eurofins), JAK 2; assay type: biochemical; set-up: unit not given here; conditions: value close to 100 indicates low JAK activity of the compound
T1 construct: purchased Eurofins Scientific (assay service)
Text: For the compounds of the Examples, JAK activity of each of the compounds was verified using the JAK Human TK Kinase Enzymatic Radiometric Kinase Profiler Assay service provided by Eurofins Scientific.
The activity was verified after inducing a reaction at the JAK 1, 2 and 3 active sites using radioactively labeled ATP.

[1] = Efficacy on DSS induced ulcerative colitis (disease activity index); assay type: in vivo, mice
Protocol: In order to establish an ulcerative colitis model, 2.5% DSS powder was mixed with drinking water and provided ad libitum. The DSS powder-containing drinking water was supplied for 5 to 6 days of disease induction period, and after that, normal drinking water was supplied.
The administered compounds of Table 21 were administered orally once daily. Hematochezia, diarrhea and body weight loss were scored according to the criteria shown in the following Table 22, and the scores were summed to calculate a disease activity index (DAI), which is shown in FIG. 4.
Efficacy of Compound (4) on ulcerative colitis was verified in the same manner as in Experimental Example 10-1, except that Compound (4) was used instead of Compound (1), and DSS was administered until day 5, and the drug was administered from day 6.

JAK 1 = JAK 1 (Homo sapiens, UniProt P23458); experiment: JAK Human TK kinase enzymatic radiometric assay (Eurofins), JAK 1; conditions: value close to 100 indicates low JAK activity of the compound
JAK 1, sequence (P23458 whole entry): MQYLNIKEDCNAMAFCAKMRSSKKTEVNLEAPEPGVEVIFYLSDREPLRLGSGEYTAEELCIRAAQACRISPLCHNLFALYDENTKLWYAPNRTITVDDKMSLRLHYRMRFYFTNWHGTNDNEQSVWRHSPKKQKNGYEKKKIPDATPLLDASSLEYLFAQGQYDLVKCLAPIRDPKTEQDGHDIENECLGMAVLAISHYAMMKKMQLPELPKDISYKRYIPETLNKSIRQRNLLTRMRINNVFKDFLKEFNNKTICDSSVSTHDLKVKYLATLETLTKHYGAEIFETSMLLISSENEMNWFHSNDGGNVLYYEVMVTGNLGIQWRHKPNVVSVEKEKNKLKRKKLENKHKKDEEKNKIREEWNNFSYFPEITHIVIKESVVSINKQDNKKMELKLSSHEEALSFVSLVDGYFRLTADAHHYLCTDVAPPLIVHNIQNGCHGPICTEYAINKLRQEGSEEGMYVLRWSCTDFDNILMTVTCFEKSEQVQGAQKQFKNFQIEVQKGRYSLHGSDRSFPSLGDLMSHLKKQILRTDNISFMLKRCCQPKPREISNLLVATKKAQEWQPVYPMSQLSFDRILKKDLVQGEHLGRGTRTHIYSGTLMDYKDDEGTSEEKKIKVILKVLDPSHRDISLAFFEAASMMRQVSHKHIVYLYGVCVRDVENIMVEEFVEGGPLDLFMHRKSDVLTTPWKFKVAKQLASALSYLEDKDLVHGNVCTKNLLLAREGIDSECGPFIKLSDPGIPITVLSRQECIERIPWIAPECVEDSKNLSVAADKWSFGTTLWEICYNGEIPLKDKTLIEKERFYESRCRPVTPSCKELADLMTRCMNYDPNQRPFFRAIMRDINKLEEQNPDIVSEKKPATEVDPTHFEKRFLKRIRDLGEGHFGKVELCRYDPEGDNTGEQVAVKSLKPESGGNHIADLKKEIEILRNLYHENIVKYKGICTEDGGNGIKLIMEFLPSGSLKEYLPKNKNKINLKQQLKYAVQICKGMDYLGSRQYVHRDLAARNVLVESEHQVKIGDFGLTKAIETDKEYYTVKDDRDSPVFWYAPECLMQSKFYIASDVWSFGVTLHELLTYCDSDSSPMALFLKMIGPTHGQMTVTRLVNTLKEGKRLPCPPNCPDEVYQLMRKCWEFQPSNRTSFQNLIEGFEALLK

T1 sequence (O60674 whole entry): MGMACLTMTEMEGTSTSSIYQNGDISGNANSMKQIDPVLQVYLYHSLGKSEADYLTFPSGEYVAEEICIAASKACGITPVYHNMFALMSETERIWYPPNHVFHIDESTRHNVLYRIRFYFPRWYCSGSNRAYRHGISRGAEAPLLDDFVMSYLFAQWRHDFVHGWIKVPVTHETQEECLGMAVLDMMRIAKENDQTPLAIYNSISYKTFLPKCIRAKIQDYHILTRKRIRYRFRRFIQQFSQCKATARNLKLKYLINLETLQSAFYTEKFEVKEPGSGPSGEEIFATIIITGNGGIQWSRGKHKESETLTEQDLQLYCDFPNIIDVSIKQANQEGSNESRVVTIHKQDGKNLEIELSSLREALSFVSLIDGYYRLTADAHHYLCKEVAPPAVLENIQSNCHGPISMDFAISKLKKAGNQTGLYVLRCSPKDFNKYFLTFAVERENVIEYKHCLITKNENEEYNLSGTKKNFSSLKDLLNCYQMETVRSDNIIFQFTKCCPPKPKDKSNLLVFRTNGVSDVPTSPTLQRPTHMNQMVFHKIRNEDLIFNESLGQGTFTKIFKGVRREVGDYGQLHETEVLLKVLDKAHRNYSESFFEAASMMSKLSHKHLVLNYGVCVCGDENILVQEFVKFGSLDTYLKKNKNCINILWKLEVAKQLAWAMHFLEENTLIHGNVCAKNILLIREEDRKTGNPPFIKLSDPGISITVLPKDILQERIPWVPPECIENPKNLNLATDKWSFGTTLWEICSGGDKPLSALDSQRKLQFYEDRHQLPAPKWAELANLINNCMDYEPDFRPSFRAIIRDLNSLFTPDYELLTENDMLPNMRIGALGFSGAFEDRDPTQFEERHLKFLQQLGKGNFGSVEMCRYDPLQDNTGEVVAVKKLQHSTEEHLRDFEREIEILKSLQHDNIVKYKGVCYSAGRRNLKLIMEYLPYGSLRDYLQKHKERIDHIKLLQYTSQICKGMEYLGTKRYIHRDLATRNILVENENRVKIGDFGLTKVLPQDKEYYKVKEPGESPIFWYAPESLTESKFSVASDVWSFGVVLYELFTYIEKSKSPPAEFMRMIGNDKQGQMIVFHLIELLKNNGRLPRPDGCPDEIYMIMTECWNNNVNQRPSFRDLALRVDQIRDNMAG

C[C@@H]1CCN(C(=O)CC#N)C[C@@H]1N(C)c1ncnc2c1ccn2C(=O)Nc1ccccc1N [Example 1, N-(2-aminophenyl)-4-(((3R,4R)-1-(2-cyanoacetyl)-4-methylpiperidin-3-yl) (methyl)amino)-7H-pyrrolo[2,3-d]pyrimidine-7-carboxamide]
activity at 10 µM (Raw 264.7 cell line): 77.4 ± 0.52%
activity at 10 µM (IL-6 (Interleukin-6)): 93.6 ± 0.6%
activity at 10 µM (IFN-γ): 91.5 ± 1.37%
inhibition at 10 µM (splenocytes): 55 ± 8.48%
JAK 2 Activity (JAK 2; 0.1 nM): 100
JAK 2 Activity (JAK 2; 1 nM): 92
JAK 2 Activity (JAK 2; 10 nM): 69
JAK 2 Activity (JAK 2; 100 nM): 16
efficacy on disease activity index (DAI) ([1]; 25 mg/kg oral once daily from day 3, day 7 of the test, p<0.01, FIG. 4): statistically significant efficacy was observed
efficacy in alleviating ulcerative colitis compared to tofacitinib ([1]; 25 mg/kg oral once daily, FIGS. 4 and 5): comparable to that of tofacitinib on average; also recorded: comparable or more superior efficacy
JAK 1 Activity (JAK 1; 0.1 nM): 101
JAK 1 Activity (JAK 1; 1 nM): 102
JAK 1 Activity (JAK 1; 10 nM): 45
JAK 1 Activity (JAK 1; 100 nM): 7
